# From patent US6031073A, “Cyclic polypeptides comprising a thioether linkage and methods for their preparation” (La Jolla Pharmaceutical Company, priority 1997, dated 2000)
# Like-named read-outs stand apart in the source and are kept apart here. Numbered stars: 1 amine (or outer) side, 2 acyl side, 3 side chain; on linkers, the order of the positions; unused ones are H or OH. Bridge positions count the residues as written; N and C are the ends. Square brackets hold non-standard residues; d marks the D form. Peptide text beside a SMILES is read from it. Abu(4-yl) = O=C([C@H](CC[*:3])N[*:1])[*:2]
# What was measured:
# [1] = thioether bond
# [2] = target: anticardiolipin antibody (serum of patient ACA-6501); assay: competitive ELISA, binding of patient ACA-6501 serum to cardiolipin/β2-GPI coated plate; design: species or system human; settings: amount of peptide that inhibited the human serum's binding by 50%; serum of patient ACA-6501 (GPL score 1500)
# Experimental: The binding affinities of a number of the thioether cyclic polypeptides of the present invention to anticardiolipin antibody were determined by a competitive ELISA (i.e., enzyme-linked immunosorbent assay) and compared with binding affinities of the corresponding disulfide cyclic polypeptides (e.g., 3G3, 2G3, and G3).
# Of 96 wells of a flat-bottom Immulon I microtiter plate (Dynatech Labs, Alexandria, Va.), 94 wells were coated with […] cardiolipin per well in 30 mL, of ethanol. The remaining two wells were used as controls and each received 30 mL, of ethanol. After overnight evaporation at 4° C., the plate was blocked for 2 hours at room temperature with 200 mL of 5% (w/v) fish gelatin in phosphate buffered saline (i.e., PBS, 0.15 M NaCl and 0.01 M Na2 HPO4 at pH 7.2). The plate was washed five times in Tris buffered saline (i.e., TBS, 0.15 M NaCl and 0.05 M Tris-HCl at pH 8.5). Then, β2 -glycoprotein I (i.e., β2 -GPI) was added as […] of 2.3% (v/v) IgG-depleted human serum (Sigma Chemical Co.) and incubated for 2 hours at room temperature.
# During this incubation, peptide solutions (around 2 mg/mL) were prepared by dissolving thioether cyclic peptides in 3% fish gelatin in TBS. The serums of patient ACA-6501, who has a GPL (i.e., IgG Phospholipid) score of 1500, and patient ACA-6701, who has a GPL score of 102, were diluted about 40-fold in 3% fish gelatin in TBS-PBS (1:1). Variable amounts of each of peptides were combined with 22 mL of each of the diluted human serums and then made up to the final volume of 220 mL with 3% fish gelatin in TBS-PBS (1:1). For each peptide, at least four peptide concentrations were employed and each data point was determined in duplicate.
# After 5 washes with TFBS, 100 mL of the peptide/human serum solution was added and the microplate was agitated at 40 rpm in an orbital shaker (American Scientific, Rotator V) for one hour at room temperature. The plate was washed extensively with TBS (5 times) and 100 mL of diluted (1/1000) alkaline phosphatase-conjugated goat anti-human IgG (Zymed, South San Francisco, Calif.) in 0.5% (w/v) BSA-TBS was added to each well (i.e., bovine serum albumin, BSA). The plate was then incubated for one hour at room temperature followed by addition of […]/well of PPMP solution (3 g/L phenolphthalein monophosphate plus 26.7 g/L 2-amino-2-methyl-1-propanol in water). The plate was allowed to develop at room temperature for 21 min and the reaction was stopped by adding 50 mL of 0.2 M Na2 HPO4 (Mallinckrodt) to each well. Blanks consisted of protein-coated wells that received similar treatment except human serum was not added to these wells. The plate was read at 550 nm using a microplate reader (Bio-Tek Instruments, Model EL 311).
# Absorbance vs. amount of peptide added was plotted using Graph Pad Prism (Graph Pad Software, Inc.). The amount of peptide that inhibited the human serum's binding by 50%, known as IC50, was calculated from the graph at the intersection of half-maximal absorbance with amount of peptide added.
# [3] = from H-Gly-Pro-Ala(3-Cl)-Leu-Gly-Val-Leu-Gly-Lys-Leu-Hcy-Pro-Gly-OH, 29-membered ring, Na2CO3 (1 mg/mL, pH 10.5), ACN/H2O 1:1, 25.0 °C
structure (smiles),measurement,setting,value
CC(C)C[C@@H]1NC(=O)[C@@H](NC(=O)[C@@H]2CCCN2C(=O)CN)CCSCC[C@@H](C(=O)N2CCC[C@H]2C(=O)NCC(=O)O)NC(=O)[C@H](CC(C)C)NC(=O)[C@H](CCCCN)NC(=O)CNC(=O)[C@H](CC(C)C)NC(=O)[C@H](C(C)C)NC(=O)CNC1=O [2G3-EETE],"ring closure, yield after HPLC","[1]; from H-Gly-Pro-Abu(4-Cl)-Leu-Gly-Val-Leu-Gly-Lys-Leu-Hcy-Pro-Gly-OH, 30-membered ring, Na2CO3 (1 mg/mL, pH 10.5), ACN/H2O 1:1, 25.0 °C",75%
CC(C)C[C@@H]1NC(=O)[C@@H](NC(=O)[C@@H]2CCCN2C(=O)CN)CCSC[C@@H](C(=O)N2CCC[C@H]2C(=O)NCC(=O)O)NC(=O)[C@H](CC(C)C)NC(=O)[C@H](CCCCN)NC(=O)CNC(=O)[C@H](CC(C)C)NC(=O)[C@H](C(C)C)NC(=O)CNC1=O [2G3-EMTE],"ring closure, yield after HPLC","[1]; from H-Gly-Pro-Abu(4-Cl)-Leu-Gly-Val-Leu-Gly-Lys-Leu-Cys-Pro-Gly-OH, 29-membered ring, Na2CO3 (1 mg/mL, pH 10.5), ACN/H2O 1:1, 25.0 °C",84%
CC(C)C[C@@H]1NC(=O)[C@@H](NC(=O)[C@@H]2CCCN2C(=O)CN)CSCC[C@@H](C(=O)N2CCC[C@H]2C(=O)NCC(=O)O)NC(=O)[C@H](CC(C)C)NC(=O)[C@H](CCCCN)NC(=O)CNC(=O)[C@H](CC(C)C)NC(=O)[C@H](C(C)C)NC(=O)CNC1=O [2G3-METE],"ring closure, yield after HPLC","[1]; from H-Gly-Pro-Cys-Leu-Gly-Val-Leu-Gly-Lys-Leu-Abu(4-Cl)-Pro-Gly-OH, 29-membered ring, Na2CO3 (1 mg/mL, pH 10.5), ACN/H2O 1:1, 25.0 °C",36%
CC(C)C[C@@H]1NC(=O)[C@@H](NC(=O)[C@@H]2CCCN2C(=O)CN)CSC[C@@H](C(=O)N2CCC[C@H]2C(=O)NCC(=O)O)NC(=O)[C@H](CC(C)C)NC(=O)[C@H](CCCCN)NC(=O)CNC(=O)[C@H](CC(C)C)NC(=O)[C@H](C(C)C)NC(=O)CNC1=O [2G3-MMTE],"ring closure, yield after HPLC","[1]; from H-Gly-Pro-Ala(3-Cl)-Leu-Gly-Val-Leu-Gly-Lys-Leu-Cys-Pro-Gly-OH, 28-membered ring, Na2CO3 (1 mg/mL, pH 10.5), ACN/H2O 1:1, 25.0 °C",87%
CC(C)C[C@@H]1NC(=O)[C@@H](NC(=O)[C@@H]2CCCN2C(=O)CNC(=O)[C@H](C)N)CCSC[C@@H](C(=O)N2CCC[C@H]2C(=O)NCC(=O)O)NC(=O)[C@H](CC(C)C)NC(=O)[C@H](CCCCN)NC(=O)CNC(=O)[C@H](CC(C)C)NC(=O)[C@H](C(C)C)NC(=O)CNC1=O [3G3-EMTE],"ring closure, yield after HPLC","[1]; from H-Ala-Gly-Pro-Abu(4-Cl)-Leu-Gly-Val-Leu-Gly-Lys-Leu-Cys-Pro-Gly-OH, 29-membered ring, Na2CO3 (1 mg/mL, pH 10.5), ACN/H2O 1:1, 0.71 mM, 25.0 °C",94%
CC(C)C[C@@H]1NC(=O)[C@@H](NC(=O)[C@@H]2CCCN2C(=O)CNC(=O)[C@H](C)NC(=O)OCC2c3ccccc3-c3ccccc32)CCSC[C@@H](C(=O)N2CCC[C@H]2C(=O)NCC(=O)O)NC(=O)[C@H](CC(C)C)NC(=O)[C@H](CCCCN)NC(=O)CNC(=O)[C@H](CC(C)C)NC(=O)[C@H](C(C)C)NC(=O)CNC1=O [3G3-EMTE],"ring closure, yield after HPLC","[1]; from Fmoc-Ala-Gly-Pro-Abu(4-Cl)-Leu-Gly-Val-Leu-Gly-Lys-Leu-Cys-Pro-Gly-OH, 29-membered ring, Na2CO3 (1 mg/mL, pH 10.5), ACN/H2O 1:1, 0.63 mM, 25.0 °C, 2 steps",33%
CC(C)C[C@@H]1NC(=O)[C@@H](NC(=O)[C@@H]2CCCN2C(=O)CNC(=O)[C@H](C)N)CCSC[C@@H](C(=O)N2CCC[C@H]2C(=O)NCC(=O)O)NC(=O)[C@H](CC(C)C)NC(=O)[C@H](CCCCN)NC(=O)CNC(=O)[C@H](CC(C)C)NC(=O)[C@H](C(C)C)NC(=O)CNC1=O [3G3-EMTE] (H-AGP[Abu(4-yl)]LGVLGKLCPG-OH; thioether 4-12; N-terminus and C-terminus assumed),IC50,[2],~1120 µM
CC(C)C[C@@H]1NC(=O)[C@@H](NC(=O)[C@@H]2CCCN2C(=O)CNC(=O)[C@H](C)N)CSC[C@@H](C(=O)N2CCC[C@H]2C(=O)NCC(=O)O)NC(=O)[C@H](CC(C)C)NC(=O)[C@H](CCCCN)NC(=O)CNC(=O)[C@H](CC(C)C)NC(=O)[C@H](C(C)C)NC(=O)CNC1=O [3G3-MMTE],"ring closure, yield after HPLC","[1]; from H-Ala-Gly-Pro-Ala(3-Cl)-Leu-Gly-Val-Leu-Gly-Lys-Leu-Cys-Pro-Gly-OH, 28-membered ring, Na2CO3 (1 mg/mL, pH 10.5), ACN/H2O 1:1, 25.0 °C",89%
CC[C@H](C)[C@@H]1NC(=O)[C@H](CC(C)C)NC(=O)[C@@H](NC(=O)[C@@H]2CCCN2C(=O)CN)CSC[C@@H](C(N)=O)NC(=O)[C@H](CCCNC(=N)N)NC(=O)[C@H](CC(=O)O)NC(=O)[C@@H]2CCCN2C(=O)[C@H](C)NC(=O)[C@H](CC(C)C)NC1=O [CB10-MMTE],"ring closure, yield after HPLC","[1]; from H-Gly-Pro-Ala(3-Br)-Leu-Ile-Leu-Ala-Pro-Asp-Arg-Cys-NH2, 28-membered ring, Na2CO3 (pH 10.5), H2O, 0.15 mM",27%
CC(C)C[C@@H]1NC(=O)[C@H](CCCCN)NC(=O)CNC(=O)[C@H](CC(C)C)NC(=O)[C@H](C(C)C)NC(=O)CNC(=O)[C@H](CC(C)C)NC(=O)[C@@H](N)CCSCC[C@@H](C(N)=O)NC1=O [G3-EETE],"ring closure, yield after HPLC","[1]; from H-Abu(4-Cl)-Leu-Gly-Val-Leu-Gly-Lys-Leu-Hcy-NH2, 30-membered ring, Na2CO3 (1 mg/mL, pH 10.5), ACN/H2O 1:1, 25.0 °C",48%
CC(C)C[C@@H]1NC(=O)[C@H](CCCCN)NC(=O)CNC(=O)[C@H](CC(C)C)NC(=O)[C@H](C(C)C)NC(=O)CNC(=O)[C@H](CC(C)C)NC(=O)[C@@H](N)CCSC[C@@H](C(N)=O)NC1=O [G3-EMTE],"ring closure, yield after HPLC","[1]; from H-Abu(4-Cl)-Leu-Gly-Val-Leu-Gly-Lys-Leu-Cys-NH2, 29-membered ring, Na2CO3 (1 mg/mL, pH 10.5), ACN/H2O 1:1, 25.0 °C",51%
CC(C)C[C@@H]1NC(=O)[C@H](CCCCN)NC(=O)CNC(=O)[C@H](CC(C)C)NC(=O)[C@H](C(C)C)NC(=O)CNC(=O)[C@H](CC(C)C)NC(=O)[C@@H](N)CSCC[C@@H](C(N)=O)NC1=O [G3-METE],"ring closure, yield after HPLC","[1]; from H-Ala(3-Cl)-Leu-Gly-Val-Leu-Gly-Lys-Leu-Hcy-NH2, 29-membered ring, Na2CO3 (1 mg/mL, pH 10.5), ACN/H2O 1:1, 25.0 °C",52%
CC(C)C[C@@H]1NC(=O)[C@H](CCCCN)NC(=O)CNC(=O)[C@H](CC(C)C)NC(=O)[C@H](C(C)C)NC(=O)CNC(=O)[C@H](CC(C)C)NC(=O)[C@@H](N)CSC[C@@H](C(N)=O)NC1=O [G3-MMTE],"ring closure, yield after HPLC","[1]; from H-Ala(3-Cl)-Leu-Gly-Val-Leu-Gly-Lys-Leu-Cys-NH2, 28-membered ring, Na2CO3 (1 mg/mL, pH 10.5), ACN/H2O 1:1, 25.0 °C",49%
CC(C)C[C@@H]1NC(=O)[C@@H](NC(=O)[C@@H]2CCCN2C(=O)CNC(=O)[C@H](C)NC(=O)OCC2c3ccccc3-c3ccccc32)CCSC[C@@H](C(=O)N2CCC[C@H]2C(=O)NCC(=O)O)NC(=O)[C@H](CC(C)C)NC(=O)[C@H](CCCCN)NC(=O)CNC(=O)[C@H](CC(C)C)NC(=O)[C@H](C(C)C)NC(=O)CNC1=O [N^α -Fmoc-3G3-EMTE],"ring closure, yield after HPLC","[1]; from Fmoc-Ala-Gly-Pro-Abu(4-Cl)-Leu-Gly-Val-Leu-Gly-Lys-Leu-Cys-Pro-Gly-OH, 29-membered ring, Na2CO3 (1 mg/mL, pH 10.5), ACN/H2O 1:1, 0.63 mM, 25.0 °C",19%
CC(C)C[C@@H]1NC(=O)[C@@H](NC(=O)[C@@H]2CCCN2C(=O)CN)CSCC[C@@H](C(=O)N2CCC[C@H]2C(=O)NCC(=O)O)NC(=O)[C@H](CC(C)C)NC(=O)[C@H](CCCCN)NC(=O)CNC(=O)[C@H](CC(C)C)NC(=O)[C@H](C(C)C)NC(=O)CNC1=O [d-2G3-METE],"ring closure, yield after HPLC",[1]; [3],16%
CC(C)C[C@@H]1NC(=O)[C@@H](NC(=O)[C@@H]2CCCN2C(=O)CN)CSCC[C@@H](C(=O)N2CCC[C@H]2C(=O)NCC(=O)O)NC(=O)[C@H](CC(C)C)NC(=O)[C@H](CCCCN)NC(=O)CNC(=O)[C@H](CC(C)C)NC(=O)[C@H](C(C)C)NC(=O)CNC1=O [l-2G3-METE],"ring closure, yield after HPLC",[1]; [3],29%
